Measurements published in patent US20090297566A1, “Oxygen-impervious packaging with optional oxygen scavenger, stabilized thyroid hormone compositions and methods for storing thyroid hormone pharmaceutical compositions” (priority 2004, published 2009).

How the values were obtained:
[1] = Effects of desiccation and oxygen on levothyroxine sodium raw material, forced degradation at 60°C, potency; type: physicochemical; details: for % Potency: raw material
Protocol: (§1) This study investigated the effects of humidity and oxygen on the storage of levothyroxine sodium raw material under forced degradation conditions (60° C.).
(§2) High temperature and humidity was known to contribute to potency loss of levothyroxine sodium. Thus, a desiccant was added to the packaging create a low moisture environment to test the effect of reduced humidity upon the shelf life of the product. This study also used a FreshPax Pharma O2 Absorbing Packet as an oxygen scavenger. This oxygen scavenger reduced the level of oxygen in the package to less than 1%. All samples were packaged in 40 cc HDPE bottles.
(§3) • 1. 60 g of levothyroxine sodium raw material was selected. • 2. The levothyroxine was assayed in duplicate to establish the initial potency under laboratory conditions. • 4. The samples were preparation under laboratory conditions. • 5. 3 g was distributed to each of eighteen 40 cc bottles. • 6. 1 g desiccant was added to each of six bottles. • 7. A single FreshPax Pharma O2 Absorbing Packet was added to each of six bottles. • 8. The remaining six bottles were packaged without desiccant or a packet of FreshPax Pharma O2. • 9. The bottles were capped and sealed using a Compak Jr Sealer and appropriate CRC caps. • 10. All bottles were placed in a 60° C. oven. • 11. The samples were tested for potency, as described in Example 2 and water content at 1-week intervals for three weeks, with a previously unopened sample bottle being tested at each interval. Potency analysis was conducted in duplicate weighings from each bottle correcting for actual water content.

[2] = Water content of levothyroxine sodium raw material during forced degradation at 60°C; type: physicochemical; details: for % H2O: raw material
Protocol: as §1, §2, §3

[3] = raw material with FreshPax Pharma O2 packet, 60°C, three weeks
[4] = 3 g in 40 cc HDPE bottle, Initial
[5] = B: FreshPax Pharma O2 packet, 60°C, 1 wk
[6] = B: FreshPax Pharma O2 packet, 60°C, 2 wk
[7] = B: FreshPax Pharma O2 packet, 60°C, 3 wk

Question: For `N[C@@H](Cc1cc(I)c(Oc2cc(I)c(O)c(I)c2)c(I)c1)C(=O)[O-].[Na+]` [Levothyroxine Sodium, 3,3′,5,5′-tetraiodo-L-thyronine sodium salt], which stability ([1]; raw material packaged with FreshPax Pharma O2 packet, 60°C, three weeks) is on record?
Answer: stable

Question: What about the potency loss ([1]; raw material with 1 g silica gel desiccant, 60°C, three-week study) of the same molecule?
Answer: 2.8%

Question: And the potency loss [1, 3]?
Answer: 0.4%

Question: What about the “% Potency” value [1, 4] of the same molecule?
Answer: 99.2%

Question: What about the “% Potency” value ([1]; A: 1 g silica gel, 60°C, 1 wk) of the same molecule?
Answer: 97.6%

Question: And the “% Potency” value ([1]; A: 1 g silica gel, 60°C, 2 wk)?
Answer: 97.2%

Question: What about the “% Potency” value ([1]; A: 1 g silica gel, 60°C, 3 wk) of the same molecule?
Answer: 96.4%

Question: What about the “% Potency” value [1, 5] of the same molecule?
Answer: 99.8%

Question: And the “% Potency” value [1, 6]?
Answer: 99.5%

Question: What about the “% Potency” value [1, 7] of the same molecule?
Answer: 98.8%

Question: And the “% Potency” value ([1]; C: API alone, 60°C, 1 wk)?
Answer: 99.6%

Question: What about the “% Potency” value ([1]; C: API alone, 60°C, 2 wk) of the same molecule?
Answer: 98%

Question: And the “% Potency” value ([1]; C: API alone, 60°C, 3 wk)?
Answer: 97.3%

Question: And the “loss of water content” value ([2]; raw material with 1 g silica gel desiccant, 60°C, within the first week)?
Answer: over 1%

Question: What about the “water content deviation from original water content” value [2, 3] of the same molecule?
Answer: ≤ 1%

Question: What about the “% H2O” value [2, 4] of the same molecule?
Answer: 9.9%

Question: What about the “% H2O” value ([2]; A: 1 g silica gel, 60°C, 1 wk) of the same molecule?
Answer: 8.5%

Question: And the “% H2O” value ([2]; A: 1 g silica gel, 60°C, 2 wk)?
Answer: 8.7%

Question: What about the “% H2O” value ([2]; A: 1 g silica gel, 60°C, 3 wk) of the same molecule?
Answer: 8.8%

Question: What about the “% H2O” value [2, 5] of the same molecule?
Answer: 9.1%

Question: And the “% H2O” value [2, 6]?
Answer: 9.6%

Question: And the “% H2O” value [2, 7]?
Answer: 9.6%

Question: And the “% H2O” value ([2]; C: API alone, 60°C, 1 wk)?
Answer: 9.4%

Question: And the “% H2O” value ([2]; C: API alone, 60°C, 2 wk)?
Answer: 8.9%

Question: And the “% H2O” value ([2]; C: API alone, 60°C, 3 wk)?
Answer: 8.8%
